In patent US20070185161A1, “Bicyclic substituted indole-derivative steroid hormone nuclear receptor modulators” (priority 2004, published 2007):

target: T1, human MR (Homo sapiens, UniProt P08235); experiment: Mineralocorticoid Receptor Binding Assay (Method 1); conditions: [3H]-aldosterone, racemic mixture unless otherwise indicated
T1 construct: The full length human MR gene is cloned from a human kidney or human brain cDNA library; made in house; host or cells: SF9 insect cells (baculovirus)
T1 sequence (P08235 1-984): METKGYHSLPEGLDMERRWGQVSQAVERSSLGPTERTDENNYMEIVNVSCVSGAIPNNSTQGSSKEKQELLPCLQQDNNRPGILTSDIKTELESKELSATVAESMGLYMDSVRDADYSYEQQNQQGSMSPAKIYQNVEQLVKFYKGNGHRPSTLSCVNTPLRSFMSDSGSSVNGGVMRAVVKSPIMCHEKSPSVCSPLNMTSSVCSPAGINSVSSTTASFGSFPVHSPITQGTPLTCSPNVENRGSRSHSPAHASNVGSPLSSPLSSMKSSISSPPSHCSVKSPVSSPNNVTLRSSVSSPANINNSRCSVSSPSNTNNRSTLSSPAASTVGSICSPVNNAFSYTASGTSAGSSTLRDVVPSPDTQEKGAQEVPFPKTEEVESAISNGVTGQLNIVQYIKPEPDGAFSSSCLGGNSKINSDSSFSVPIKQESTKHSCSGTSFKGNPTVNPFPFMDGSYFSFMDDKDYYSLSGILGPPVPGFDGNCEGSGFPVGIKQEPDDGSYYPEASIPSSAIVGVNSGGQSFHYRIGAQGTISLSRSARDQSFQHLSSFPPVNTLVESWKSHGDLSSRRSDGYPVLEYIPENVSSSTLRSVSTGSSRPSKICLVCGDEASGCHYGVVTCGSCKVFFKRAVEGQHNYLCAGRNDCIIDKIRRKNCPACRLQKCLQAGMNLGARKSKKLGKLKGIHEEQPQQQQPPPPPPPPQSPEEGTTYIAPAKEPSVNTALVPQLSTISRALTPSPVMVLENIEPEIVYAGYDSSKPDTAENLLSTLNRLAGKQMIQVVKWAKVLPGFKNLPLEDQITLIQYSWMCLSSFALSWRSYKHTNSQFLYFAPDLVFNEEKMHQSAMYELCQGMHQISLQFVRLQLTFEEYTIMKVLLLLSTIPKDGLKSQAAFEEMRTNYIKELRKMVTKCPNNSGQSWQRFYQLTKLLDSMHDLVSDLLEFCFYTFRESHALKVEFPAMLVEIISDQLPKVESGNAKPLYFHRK
Experimental: The full length human MR gene is cloned from a human kidney or human brain cDNA library. Briefly, using synthetic oligonucleotide primers (Eli Lilly and Company, Indianapolis) directed to nucleotides 20-54 and 3700-3666 of the human MR, polymerase chain reaction (PCR) is performed under standard conditions using a human cDNA library. The PCR reaction is performed in a final volume of 50 μl containing about 1 μl of a 50× stock solution of polymerase; about 1 μl of a 50× stock solution of dNTP; about 5 μl of an appropriate PCR buffer; about 1 μl of each primer; about 5 μl of a H. kidney or H. brain cDNA library; and about 36 μl of water. The reaction is allowed to denature for about 30 seconds at 95 degrees Celsius, anneal for about 30 seconds at 55 degrees Celsius, and extend for about 5 minutes at 72 degrees Celsius, the sequence being repeated for a total of about 35 cycles. The desired PCR product (3.68 Kb) is confirmed by gel electrophoresis and subsequently cut from the gel and stored at about −20 degrees Celsius until extraction. To extract the cDNA product from the agarose gel, the QIAEX II Gel Extraction protocol (QIAGEN, Inc.) is employed according to the manufacturer's instructions. Following extraction, the MR cDNA is cloned into an appropriate cloning vector (Zero Blunt TOPO PCR Cloning Kit (Invitrogen, Inc.) and a pAcHLT-baculovirus transfer vector (B.D./Pharminogen), then expressed in SF9 insect cells, essentially according to manufacturer's instructions. Sf9 cells are grown at a scale where gram quantity cell pellets are obtained for subsequent use in the MR binding assay. Harvested cell pellets are lysed by repeated freeze-thaw cycles (about 4) in a suitable lysis buffer then centrifuged at about 1×10^3 G (with the supernatant being saved for future assays).
MR binding assays are performed in a final total volume of about 250 μl containing about 20-25 μg of protein and 0.5 nM of [^3H]-aldosterone plus varying concentrations of test compound or vehicle. The assay binding buffer consists of 30 mM sodium molybdate, 30 mM of TRIS-HCl, 5 mM sodium phosphate, 5 mM sodium pyrophosphate, and about 10% glycerol, pH=7.5.
Briefly, assays are prepared at RT in 96-well Falcon 3072 plates, each well containing 210 μl of binding buffer, 10 μl of [^3H]-aldosterone, 10 μl of test compound/vehicle, and 20 μl of the resuspended receptor protein extract. Incubations are carried out at 4 degrees Celsius with shaking for about 16 hours. 200 μl aliquots of each incubation are filtered onto Millipore HA 0.45 micron 96-well filter plates, pre-moistened with cold 30 mM TRIS-HCl. The filter plates are suctioned dry with vacuum and immediately washed 3× with cold 30 mM TRIS-HCl. The plates are then punched out and the amount of receptor-ligand complex is determined by liquid scintillation counting using 4 ml of Ready Protein Plus™ liquid scintillation cocktail.
IC50 values (defined as the concentration of test compound required to decrease [^3H]-aldosterone binding by 50%) are then determined. Ki values for each respective test compound can then be calculated by application of the Cheng-Prusoff equation as described in Cheng et al., Relationship Between The Inhibition Constant (Ki) and The Concentration of Inhibitor Which Causes 50% Inhibition (IC50) of an Enzymatic Reaction, Biochem. Pharmacol., 22: 3099-31088; (1973).

Ki	SMILES
≤ 500 nM	CC1(c2c[nH]c3c(NS(C)(=O)=O)cccc23)CCOc2cc(F)ccc21 (single isomer, unassigned) [Example 34B, N-[3-(7-Fluoro-4-methyl-chroman-4-yl)-1H-indol-7-yl]-methanesulfonamide]
≤ 500 nM	CCC1(c2c[nH]c3c(NS(C)(=O)=O)cccc23)CCOc2cc(F)ccc21 (single isomer, unassigned) [Example 35A, N-[3-(4-Ethyl-7-fluoro-chroman-4-yl)-1H-indol-7-yl]-methanesulfonamide]
≤ 500 nM	CCC1(c2c[nH]c3c(NS(C)(=O)=O)cccc23)CCOc2cc(F)ccc21 (single isomer, unassigned) [Example 35B, N-[3-(4-Ethyl-7-fluoro-chroman-4-yl)-1H-indol-7-yl]-methanesulfonamide]
≤ 500 nM	CCC1(c2c[nH]c3c(NS(C)(=O)=O)cccc23)CCOc2cc(F)cc(F)c21 (single isomer, unassigned) [Example 36A, N-[3-(4-Ethyl-5,7-difluoro-chroman-4-yl)-1H-indol-7-yl]-methanesulfonamide]
≤ 500 nM	CCC1(c2c[nH]c3c(NS(C)(=O)=O)cccc23)CCOc2cc(F)cc(F)c21 (single isomer, unassigned) [Example 36B, N-[3-(4-Ethyl-5,7-difluoro-chroman-4-yl)-1H-indol-7-yl]-methanesulfonamide]
≤ 500 nM	CS(=O)(=O)Nc1cccc2c(C3(C4CC4)CCc4cc(F)ccc43)c[nH]c12 (single isomer, unassigned) [Example 39A, N-[3-(1-Cyclopropyl-5-fluoro-indan-1-yl)-1H-indol-7-yl]-methanesulfonamide]
≤ 500 nM	CS(=O)(=O)Nc1cccc2c(C3(C4CC4)CCc4cc(F)ccc43)c[nH]c12 (single isomer, unassigned) [Example 39B, N-[3-(1-Cyclopropyl-5-fluoro-indan-1-yl)-1H-indol-7-yl]-methanesulfonamide]
≤ 500 nM	CS(=O)(=O)Nc1cccc2c(C3(CCCO)CCc4cc(F)ccc43)c[nH]c12 (single isomer, unassigned) [Example 40A, N-{3-[5-Fluoro-1-(3-hydroxy-propyl)-indan-1-yl]-1H-indol-7-yl}-methanesulfonamide]
≤ 500 nM	CS(=O)(=O)Nc1cccc2c(C3(CCCO)CCc4cc(F)ccc43)c[nH]c12 (single isomer, unassigned) [Example 40B, N-{3-[5-Fluoro-1-(3-hydroxy-propyl)-indan-1-yl]-1H-indol-7-yl}-methanesulfonamide]
≤ 500 nM	CCC1(c2c[nH]c3c([N+](=O)[O-])cccc23)CCc2cc(F)ccc21 (stereo not drawn) [Example 2, 3-(1-Ethyl-5-fluoro-indan-1-yl)-7-nitro-1H-indole]
≤ 500 nM	CCC1(c2cn(C)c3c(NS(C)(=O)=O)cccc23)CCc2cc(F)ccc21 (stereo not drawn) [Example 5, N-[3-(1-Ethyl-5-fluoro-indan-1-yl)-1-methyl-1H-indol-7-yl]-methanesulfonamide]
≤ 500 nM	CCC1(c2c[nH]c3c(N)cccc23)CCc2cc(F)ccc21 (stereo not drawn) [Example 14, 3-(1-Ethyl-5-fluoro-indan-1-yl)-1H-indol-7-ylamine]
≤ 500 nM	CCC1(c2c[nH]c3c(NC(=O)OC)cccc23)CCc2cc(F)ccc21 (stereo not drawn) [Example 15, [3-(1-Ethyl-5-fluoro-indan-1-yl)-1H-indol-7-yl]-carbamic acid methyl ester]
≤ 500 nM	CCC1(c2c[nH]c3c(NC(C)=O)cccc23)CCc2cc(F)ccc21 (stereo not drawn) [Example 16, N-[3-(1-ethyl-5-fluoro-indan-1-yl)-1H-indol-7-yl]-acetamide]
≤ 500 nM	CCC1(c2c[nH]c3c(NS(=O)(=O)N(C)C)cccc23)CCc2cc(F)ccc21 (stereo not drawn) [Example 17]
≤ 500 nM	CCC1(c2c[nH]c3c(NS(=O)(=O)c4ccccc4)cccc23)CCc2cc(F)ccc21 (stereo not drawn) [Example 18, N-[3-(1-ethyl-5-fluoro-indan-1-yl)-1H-indol-7-yl]-benzenesulfonamide]
≤ 500 nM	CCC1(c2c[nH]c3c(NS(=O)(=O)CC)cccc23)CCc2cc(F)ccc21 (stereo not drawn) [Example 19, Ethanesulfonic acid [3-(1-ethyl-5-fluoro-indan-1-yl)-1H-indol-7-yl]-amide]
≤ 500 nM	CC1(c2c[nH]c3c(NS(C)(=O)=O)cccc23)CCc2ccccc21 (stereo not drawn) [Example 20, N-[3-(1-Methyl-indan-1-yl)-1H-indol-7-yl]-methanesulfonamide]
≤ 500 nM	CC1(c2c[nH]c3c(NS(C)(=O)=O)cccc23)CCc2cc(-n3cccn3)ccc21 (stereo not drawn) [Example 24, N-[3-(1-Methyl-5-pyrazol-1-yl-indan-1-yl)-1H-indol-7-yl]-methanesulfonamide]
≤ 500 nM	CS(=O)(=O)Nc1cccc2c(C3CCCc4ccccc43)c[nH]c12 (stereo not drawn) [Example 25, N-[3-(1,2,3,4-Tetrahydro-naphthalen-1-yl)-1H-indol-7-yl]-methanesulfonamide]
≤ 500 nM	CC1(c2c[nH]c3c(NS(C)(=O)=O)cccc23)CCCc2ccccc21 (stereo not drawn) [Example 26, N-[3-(1-Methyl-1,2,3,4-tetrahydro-naphthalen-1-yl)-1H-indol-7-yl]-methanesulfonamide]
≤ 500 nM	CCC1(c2c[nH]c3c(NS(C)(=O)=O)cccc23)CCCc2ccccc21 (stereo not drawn) [Example 27, N-[3-(1-Ethyl-1,2,3,4-tetrahydro-naphthalen-1-yl)-1H-indol-7-yl]-methanesulfonamide]
≤ 500 nM	CC1(c2c[nH]c3c(NS(C)(=O)=O)cccc23)CCOc2ccccc21 (stereo not drawn) [Example 32, N-[3-(4-Methyl-chroman-4-yl)-1H-indol-7-yl]-methanesulfonamide]
≤ 500 nM	CC1(c2c[nH]c3c(NS(C)(=O)=O)cccc23)CCOc2ccc(F)cc21 (stereo not drawn) [Example 33, N-[3-(6-Fluoro-4-methyl-chroman-4-yl)-1H-indol-7-yl]-methanesulfonamide]
≤ 500 nM	CC1(c2c[nH]c3c(NS(C)(=O)=O)cccc23)CCSc2ccccc21 (stereo not drawn) [Example 37, N-[3-(4-Methyl-thiochroman-4-yl)-1-indol-7-yl]-methanesulfonamide]
≤ 500 nM	CC1(c2c[nH]c3c(NS(C)(=O)=O)cccc23)CCCCc2ccccc21 (stereo not drawn) [Example 38, N-[3-(5-Methyl-6,7,8,9-tetrahydro-5H-benzocyclohepten-5-yl)-1H-indol-7-yl]-methanesulfonamide]
≤ 500 nM	CS(=O)(=O)Nc1cccc2c(C3(CCCI)CCc4cc(F)ccc43)c[nH]c12 (stereo not drawn) [Example 41, N-{3-[5-Fluoro-1-(3-iodo-propyl)-indan-1-yl]-1H-indol-7-yl}-methanesulfonamide]
